Experimental data from US10065963B2 (Incyte Corporation, priority 2015, dated 2018).
Counter-ions that a name gives are not always drawn.

What was measured:
[1] = target: PI3Kγ (p110γ) Recombinant Human Protein (Homo sapiens (Human), UniProt P48736); experiment: PI3K-γ scintillation proximity assay; format: biochemical; conditions: 2 μM ATP, 20 μM PIP2
[2] = target: PI3Kδ (p110δ/p85α) Recombinant Human Protein (Homo sapiens (Human), UniProt O00329); experiment: PI3Kδ scintillation proximity assay; format: biochemical; conditions: 2 μM ATP, 20 μM PIP2
[3] = tested on: Phosphorylated Ribosomal Protein S6 (RPS6) in THP-1 cells; experiment: THP-1 RPS6 ELISA assay; format: cell-based, human; conditions: Homo sapiens, THP-1, THP-1 cells, 10 nM MCP-1; read-out: PI3Kγ_THP1_RPS6_ELISA IC50

PI3Kδ (p110δ/p85α) Recombinant Human Protein, sequence (O00329 whole entry): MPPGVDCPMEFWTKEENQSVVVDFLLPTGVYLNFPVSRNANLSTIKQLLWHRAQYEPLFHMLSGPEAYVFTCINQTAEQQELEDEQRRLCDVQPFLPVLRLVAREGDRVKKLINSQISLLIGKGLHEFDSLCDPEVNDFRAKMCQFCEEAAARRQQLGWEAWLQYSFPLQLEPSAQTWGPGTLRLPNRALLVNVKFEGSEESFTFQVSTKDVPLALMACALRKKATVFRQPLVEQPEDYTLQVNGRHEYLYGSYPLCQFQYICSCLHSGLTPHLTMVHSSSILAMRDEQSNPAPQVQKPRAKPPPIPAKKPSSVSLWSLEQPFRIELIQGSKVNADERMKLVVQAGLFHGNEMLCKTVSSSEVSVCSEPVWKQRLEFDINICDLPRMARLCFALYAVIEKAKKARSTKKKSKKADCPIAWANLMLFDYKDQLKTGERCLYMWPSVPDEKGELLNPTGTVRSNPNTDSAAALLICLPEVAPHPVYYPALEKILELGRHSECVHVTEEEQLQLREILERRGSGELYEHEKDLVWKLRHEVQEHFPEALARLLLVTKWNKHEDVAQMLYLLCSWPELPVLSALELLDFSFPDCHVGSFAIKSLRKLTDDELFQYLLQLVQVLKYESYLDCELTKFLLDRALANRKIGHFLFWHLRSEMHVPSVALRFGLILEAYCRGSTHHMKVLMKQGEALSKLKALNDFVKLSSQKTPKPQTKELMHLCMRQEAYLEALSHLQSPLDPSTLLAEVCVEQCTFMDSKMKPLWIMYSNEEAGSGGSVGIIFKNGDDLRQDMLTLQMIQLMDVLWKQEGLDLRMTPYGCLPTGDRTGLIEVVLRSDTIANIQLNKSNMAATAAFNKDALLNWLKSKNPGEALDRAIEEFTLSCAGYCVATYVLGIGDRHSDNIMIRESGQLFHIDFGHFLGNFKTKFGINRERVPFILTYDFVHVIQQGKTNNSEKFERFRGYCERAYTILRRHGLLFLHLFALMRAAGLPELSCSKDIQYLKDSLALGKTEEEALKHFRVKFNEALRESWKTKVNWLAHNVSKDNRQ
PI3Kδ (p110δ/p85α) Recombinant Human Protein, sequence (P27986 whole entry partner): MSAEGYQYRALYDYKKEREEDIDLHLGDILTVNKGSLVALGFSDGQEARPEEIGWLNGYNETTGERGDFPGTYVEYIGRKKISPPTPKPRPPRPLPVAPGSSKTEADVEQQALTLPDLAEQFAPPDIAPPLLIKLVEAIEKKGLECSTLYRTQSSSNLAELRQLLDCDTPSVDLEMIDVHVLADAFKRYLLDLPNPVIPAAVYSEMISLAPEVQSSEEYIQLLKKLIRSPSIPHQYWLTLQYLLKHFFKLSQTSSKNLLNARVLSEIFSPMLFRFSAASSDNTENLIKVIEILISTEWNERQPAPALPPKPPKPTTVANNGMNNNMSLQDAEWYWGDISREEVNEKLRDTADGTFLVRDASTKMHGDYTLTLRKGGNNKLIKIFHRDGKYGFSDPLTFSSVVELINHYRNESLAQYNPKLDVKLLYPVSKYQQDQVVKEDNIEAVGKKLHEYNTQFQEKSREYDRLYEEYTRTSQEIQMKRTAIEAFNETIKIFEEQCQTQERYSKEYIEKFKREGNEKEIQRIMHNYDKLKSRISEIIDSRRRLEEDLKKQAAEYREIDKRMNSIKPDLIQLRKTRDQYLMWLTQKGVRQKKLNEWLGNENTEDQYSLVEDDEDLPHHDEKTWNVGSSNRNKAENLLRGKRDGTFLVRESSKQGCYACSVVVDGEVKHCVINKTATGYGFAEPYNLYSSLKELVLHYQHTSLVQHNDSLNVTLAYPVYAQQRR
PI3Kγ (p110γ) Recombinant Human Protein, sequence (P48736 whole entry): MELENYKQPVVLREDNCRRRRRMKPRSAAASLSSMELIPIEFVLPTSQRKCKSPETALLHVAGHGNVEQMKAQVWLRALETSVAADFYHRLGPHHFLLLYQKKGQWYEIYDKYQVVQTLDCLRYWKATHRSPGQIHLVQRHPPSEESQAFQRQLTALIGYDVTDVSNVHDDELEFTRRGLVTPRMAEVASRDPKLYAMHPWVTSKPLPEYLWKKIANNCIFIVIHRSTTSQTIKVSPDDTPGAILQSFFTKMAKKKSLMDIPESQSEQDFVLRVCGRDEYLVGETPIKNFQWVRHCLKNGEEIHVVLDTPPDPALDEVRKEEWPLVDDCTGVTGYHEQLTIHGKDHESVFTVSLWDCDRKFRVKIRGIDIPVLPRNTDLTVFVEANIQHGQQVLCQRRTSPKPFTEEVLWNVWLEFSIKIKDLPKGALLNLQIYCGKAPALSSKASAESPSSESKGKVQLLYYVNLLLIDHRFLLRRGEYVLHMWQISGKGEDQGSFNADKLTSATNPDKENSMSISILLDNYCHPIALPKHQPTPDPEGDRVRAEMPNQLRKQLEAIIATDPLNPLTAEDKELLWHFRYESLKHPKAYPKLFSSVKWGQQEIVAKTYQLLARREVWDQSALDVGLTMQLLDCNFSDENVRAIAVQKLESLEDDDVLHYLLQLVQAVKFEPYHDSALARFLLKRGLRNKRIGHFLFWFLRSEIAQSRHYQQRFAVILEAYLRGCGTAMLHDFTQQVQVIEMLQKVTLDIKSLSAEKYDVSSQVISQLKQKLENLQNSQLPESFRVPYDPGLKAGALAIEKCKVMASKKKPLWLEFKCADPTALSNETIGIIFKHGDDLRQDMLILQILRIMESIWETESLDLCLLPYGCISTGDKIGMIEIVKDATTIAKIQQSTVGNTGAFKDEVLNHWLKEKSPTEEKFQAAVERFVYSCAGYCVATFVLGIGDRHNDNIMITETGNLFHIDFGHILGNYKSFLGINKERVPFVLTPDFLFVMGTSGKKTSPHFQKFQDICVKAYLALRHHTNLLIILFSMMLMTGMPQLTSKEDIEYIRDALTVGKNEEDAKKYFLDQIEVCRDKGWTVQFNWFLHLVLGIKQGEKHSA

SMILES | IC50 [1] [nM] | IC50 [2] [nM] | IC50 [3] [nM]
CC(NC(=O)c1c(N)nn2cccnc12)c1cc(Cl)c2cncn2c1-c1cccnc1 (racemic) [Example 127, 2-Amino-N-[1-(8-chloro-5-pyridin-3-ylimidazo[1,5-a]pyridin-6-yl)ethyl]pyrazolo[1,5-a]pyrimidine-3-carboxamide trifluoroacetate salt] | < 100 | < 100 | < 500
CC(NC(=O)c1c(N)nn2cccnc12)c1cc(Cl)c2c(C#N)ncn2c1-c1cccnc1 (racemic) [Example 128, 2-Amino-N-[1-(8-chloro-1-cyano-5-pyridin-3-ylimidazo[1,5-a]pyridin-6-yl)ethyl]pyrazolo[1,5-a]pyrimidine-3-carboxamide trifluoroacetate salt] | < 100 | < 2000 | > 1000
Cc1ncn2c(-c3cccnc3)c(C(C)NC(=O)c3c(N)nn4cccnc34)cc(Cl)c12 (racemic) [Example 129, 2-Amino-N-[1-(8-chloro-1-methyl-5-pyridin-3-ylimidazo[1,5-a]pyridin-6-yl)ethyl]pyrazolo[1,5-a]pyrimidine-3-carboxamide trifluoroacetate salt] | < 100 | < 2000 | < 1000
CC(NC(=O)c1c(N)nn2cccnc12)c1cc(Cl)c2cncn2c1-c1cc[nH]n1 (racemic) [Example 130, 2-Amino-N-{1-[8-chloro-5-(1H-pyrazol-3-yl)imidazo[1,5-a]pyridin-6-yl]ethyl}pyrazolo[1,5-a]pyrimidine-3-carboxamide trifluoroacetate salt] | < 100 | < 500 | < 500
CC(NC(=O)c1c(N)nn2cccnc12)c1cc(Cl)c2cncn2c1-c1cncc(S(C)(=O)=O)c1 (racemic) [Example 131, 2-Amino-N-(1-{8-chloro-5-[5-(methylsulfonyl)pyridin-3-yl]imidazo[1,5-a]pyridin-6-yl}ethyl)pyrazolo[1,5-a]pyrimidine-3-carboxamide trifluoroacetate salt] | < 100 | < 100 | < 500
CC(NC(=O)c1c(N)nn2cccnc12)c1cc(Cl)c2cncn2c1-c1ccccn1 (racemic) [Example 133, 2-Amino-N-[1-(8-chloro-5-pyridin-2-ylimidazo[1,5-a]pyridin-6-yl)ethyl]pyrazolo[1,5-a]pyrimidine-3-carboxamide trifluoroacetate salt] | < 100 | < 500 | < 500
CNS(=O)(=O)c1ccc(-c2c(C(C)NC(=O)c3c(N)nn4cccnc34)cc(Cl)c3cncn23)cc1 (racemic) [Example 135, 2-Amino-N-[1-(8-chloro-5-{4-[(methylamino)sulfonyl]phenyl}imidazo[1,5-a]pyridin-6-yl)ethyl]pyrazolo[1,5-a]pyrimidine-3-carboxamide trifluoroacetate salt] | < 100 | < 500 | > 1000
CC(NC(=O)c1c(N)nn2cccnc12)c1cc(Cl)c2cncn2c1-c1ccc(S(C)(=O)=O)cc1 (racemic) [Example 136, 2-Amino-N-(1-{8-chloro-5-[4-(methylsulfonyl)phenyl]imidazo[1,5-a]pyridin-6-yl}ethyl)pyrazolo[1,5-a]pyrimidine-3-carboxamide trifluoroacetate salt] | < 100 | < 500 | > 1000
CC(NC(=O)c1c(N)nn2cccnc12)c1cc(Cl)c2cncn2c1-c1cncc(C#N)c1 (racemic) [Example 137, 2-Amino-N-{1-[8-chloro-5-(5-cyanopyridin-3-yl)imidazo[1,5-a]pyridin-6-yl]ethyl}pyrazolo[1,5-a]pyrimidine-3-carboxamide trifluoroacetate salt] | < 100 | < 100 | < 500
CC(NC(=O)c1c(N)nn2cccnc12)c1cc(Cl)c2cncn2c1-c1cnccn1 (racemic) [Example 138, 2-Amino-N-[1-(8-chloro-5-pyrazin-2-ylimidazo[1,5-a]pyridin-6-yl)ethyl]pyrazolo[1,5-a]pyrimidine-3-carboxamide trifluoroacetate salt] | < 100 | < 500 | < 1000
CC(NC(=O)c1c(N)nn2cccnc12)c1cc(Cl)c2cncn2c1-c1cn[nH]c1 (racemic) [Example 139, 2-Amino-N-{1-[8-chloro-5-(1H-pyrazol-4-yl)imidazo[1,5-a]pyridin-6-yl]ethyl}pyrazolo[1,5-a]pyrimidine-3-carboxamide trifluoroacetate salt] | < 100 | < 100 | < 500
CC(NC(=O)c1c(N)nn2cccnc12)c1cc(Cl)c2cncn2c1-c1cnn(C)c1 (racemic) [Example 140, 2-Amino-N-{1-[8-chloro-5-(1-methyl-1H-pyrazol-4-yl)imidazo[1,5-a]pyridin-6-yl]ethyl}pyrazolo[1,5-a]pyrimidine-3-carboxamide trifluoroacetate salt] | < 100 | < 100 | < 500
CC(NC(=O)c1c(N)nn2cccnc12)c1cc(Cl)c2cncn2c1N1CCN(S(C)(=O)=O)CC1 (racemic) [Example 141, 2-Amino-N-(1-{8-chloro-5-[4-(methylsulfonyl)piperazin-1-yl]imidazo[1,5-a]pyridin-6-yl}ethyl)pyrazolo[1,5-a]pyrimidine-3-carboxamide trifluoroacetate salt] | < 100 | < 500 | < 500

Other lines, results leading:

IC50 [1] [nM] | IC50 [2] [nM] | IC50 [3] [nM] | SMILES
< 100 | < 100 | < 500 | CC(NC(=O)c1c(N)nn2cccnc12)c1cc(Cl)c2cncn2c1N1CCCC1 (racemic) [Example 142, 2-Amino-N-[1-(8-chloro-5-pyrrolidin-1-ylimidazo[1,5-a]pyridin-6-yl)ethyl]pyrazolo[1,5-a]pyrimidine-3-carboxamide trifluoroacetate salt]
< 100 | < 500 | < 1000 | COC1CCN(c2c(C(C)NC(=O)c3c(N)nn4cccnc34)cc(Cl)c3cncn23)CC1 (racemic) [Example 143, 2-Amino-N-{1-[8-chloro-5-(4-methoxypiperidin-1-yl)imidazo[1,5-a]pyridin-6-yl]ethyl}pyrazolo[1,5-a]pyrimidine-3-carboxamide]
< 100 | < 100 | > 1000 | CC(NC(=O)c1c(N)nn2cccnc12)c1cc(Cl)c2cncn2c1N1CCOCC1 (racemic) [Example 145, 2-Amino-N-[1-(8-chloro-5-morpholin-4-ylimidazo[1,5-a]pyridin-6-yl)ethyl]pyrazolo[1,5-a]pyrimidine-3-carboxamide trifluoroacetate salt]
< 100 | < 100 | < 500 | CC(NC(=O)c1c(N)nn2cccnc12)c1cc(Cl)c2cncn2c1N1CCC(O)CC1 (racemic) [Example 146, 2-Amino-N-{1-[8-chloro-5-(4-hydroxypiperidin-1-yl)imidazo[1,5-a]pyridin-6-yl]ethyl}pyrazolo[1,5-a]pyrimidine-3-carboxamide trifluoroacetate salt]
< 100 | < 500 | < 500 | CC(NC(=O)c1c(N)nn2cccnc12)c1cc(Cl)c2cncn2c1N1CCC(Br)CC1 (racemic) [Example 147, 2-Amino-N-{1-[5-(4-bromopiperidin-1-yl)-8-chloroimidazo[1,5-a]pyridin-6-yl]ethyl}pyrazolo[1,5-a]pyrimidine-3-carboxamide trifluoroacetate salt]
< 100 | < 100 | < 500 | CC(NC(=O)c1c(N)nn2cccnc12)c1cc(Cl)c2cncn2c1N1CCNS(=O)(=O)CC1 (racemic) [Example 149, 2-Amino-N-{1-[8-chloro-5-(1,1-dioxido-1,2,5-thiadiazepan-5-yl)imidazo[1,5-a]pyridin-6-yl]ethyl}pyrazolo[1,5-a]pyrimidine-3-carboxamide]
< 100 | < 100 | < 500 | CC(NC(=O)c1c(N)nn2cccnc12)c1cc(Cl)c2cncn2c1N1CCCS(=O)(=O)CC1 (racemic) [Example 151, 2-Amino-N-{1-[8-chloro-5-(1,1-dioxido-1,4-thiazepan-4-yl)imidazo[1,5-a]pyridin-6-yl]ethyl}pyrazolo[1,5-a]pyrimidine-3-carboxamide trifluoroacetate salt]
< 500 | < 500 | < 1000 | CC(NC(=O)c1c(N)nn2cccnc12)c1cc(Cl)c2cncn2c1N1CCN(C)C(=O)C1 (racemic) [Example 154, 2-Amino-N-{1-[8-chloro-5-(4-methyl-3-oxopiperazin-1-yl)imidazo[1,5-a]pyridin-6-yl]ethyl}pyrazolo[1,5-a]pyrimidine-3-carboxamide trifluoroacetate salt]
< 100 | < 500 | < 500 | CC(NC(=O)c1c(N)nn2cccnc12)c1cc(Cl)c2cncn2c1N1C[C@H](O)C[C@@H](O)C1 (mixture of isomers) [Example 155A, 2-Amino-N-(1-{8-chloro-5-[(3R,5R)-3,5-dihydroxypiperidin-1-yl]imidazo[1,5-a]pyridin-6-yl}ethyl)pyrazolo[1,5-a]pyrimidine-3-carboxamide trifluoroacetate salt]
< 100 | < 500 | < 500 | Cc1ncc2c(Cl)cc(C(C)NC(=O)c3c(N)nn4cccnc34)c(N3CCCS(=O)(=O)CC3)n12 (racemic) [Example 158, 2-Amino-N-(1-(8-chloro-5-(1,1-dioxido-1,4-thiazepan-4-yl)-3-methylimidazo[1,5-a]pyridin-6-yl)ethyl)pyrazolo[1,5-a]pyrimidine-3-carboxamide trifluoroacetate salt]
< 100 | < 500 | < 500 | CC(NC(=O)c1c(N)nn2cccnc12)c1cc(Cl)c2c(Cl)ncn2c1N1CCS(=O)(=O)CC1 (racemic) [Example 162, 2-Amino-N-{1-[1,8-dichloro-5-(1,1-dioxidothiomorpholin-4-yl)imidazo[1,5-a]pyridin-6-yl]ethyl}pyrazolo[1,5-a]pyrimidine-3-carboxamide trifluoroacetate salt]
